Test results taken from ChEMBL document CHEMBL1130001, “Quantitative structure-activity relationships among macrolide antibacterial agents: in vitro and in vivo potency against Pasteurella multocida” (J Med Chem, 1997).
In brackets after ≈: the same amount, converted by molar mass.

Experiments:
Pasteurella multocida [1] = assay: Minimum inhibitory concentration against Pasteurella multocida.; type: functional
physchem [2] = assay: physchem
Description: Dissociation constant (pKa)

[3] = not given; remark: listed apart in the source
Mus musculus = species: Mus musculus; assay: Protective dose at which 50% of infected, treated mice survive; type: functional; conditions: read-out: PD50
[4] = not given; remark: listed apart in the source
physchem [5] = assay: physchem; remark: listed apart in the source
Description: Dissociation constant (pKa)

Pasteurella multocida [6] = type: functional
Description: Log value of the Minimum inhibitory concentration against Pasteurella multocida.

physchem [7] = assay: physchem; remark: listed apart in the source
Description: Dissociation constant (pKa)

Pasteurella multocida [8] = assay: Minimum inhibitory concentration against Pasteurella multocida; type: functional

| Log K | pKa (physchem [2]) | pNF [3] | pCF [4] | pKa (physchem [5]) | Log 1/MIC (Pasteurella multocida [6]) | pKa (physchem [7]) | Structure (SMILES) | MIC (Pasteurella multocida [1]) | ED50 (Mus musculus) | MIC (Pasteurella multocida [8]) |
| --- | --- | --- | --- | --- | --- | --- | --- | --- | --- | --- |
| 0.86 | 8.83 | 1.446 | 0.016 |  |  |  | CCC1OC(=O)CC(O)C(C)C(O[C@@H]2O[C@H](C)C[C@H](N(C)C)[C@H]2O)C(CC=O)CC(C)C(=O)/C=C/C(C)=C/C1C (stereo partly specified) |  |  |  |
| 0.23 | 8.56 | 3.099 | 1.189 | 9.31 | 3.53 |  | CC[C@H]1OC(=O)CC(O)[C@H](C)[C@@H](O[C@@H]2O[C@H](C)C[C@H](N(C)C)[C@H]2O)[C@@H](CCNC2C(O)CCCC2O)C[C@@H](C)C(=O)/C=C/C(C)=C/[C@@H]1C (stereo partly specified) |  |  |  |
| 0.1 | 8.59 | 3.437 | 1.217 | 9.62 | 3.79 |  | CC[C@H]1OC(=O)CC(O)[C@H](C)[C@@H](O[C@@H]2O[C@H](C)C[C@H](N(C)C)[C@H]2O)[C@@H](CCNCCO)C[C@@H](C)C(=O)/C=C/C(C)=C/[C@@H]1C (stereo partly specified) |  |  |  |
| 0.02 | 6.81 | 2.391 | 0.891 | 8.13 | 4.15 | 8.9 | CC[C@H]1OC(=O)CC(O)[C@H](C)[C@@H](O[C@@H]2O[C@H](C)C[C@H](N(C)C)[C@H]2O)[C@@H](CCN(C)CCN(C)C(=O)[C@H](C)N)C[C@@H](C)C(=O)/C=C/C(C)=C/[C@@H]1C (stereo partly specified) |  |  |  |
| -0.23 | 5.61 | 2.413 | 0.863 | 8.19 | 2.44 | 8.95 | CC[C@H]1OC(=O)CC(O)[C@H](C)[C@@H](O[C@@H]2O[C@H](C)C[C@H](N(C)C)[C@H]2O)[C@@H](CCN(C)CCN(C)C)C[C@@H](C)C(=O)/C=C/C(C)=C/[C@@H]1C (stereo partly specified) |  |  |  |
| -0.12 | 7.81 | 4.138 | 1.938 | 8.78 | 3.27 | 9.6 | CC[C@H]1OC(=O)CC(O)[C@H](C)[C@@H](O[C@@H]2O[C@H](C)C[C@H](N(C)C)[C@H]2O)[C@@H](CCN(CCCN(C)C)C(=O)[C@H](C)N)C[C@@H](C)C(=O)/C=C/C(C)=C/[C@@H]1C (stereo partly specified) |  |  |  |
| 0.43 | 8.53 | 3.481 | 1.161 | 9.72 | 4.12 |  | CC[C@H]1OC(=O)CC(O)[C@H](C)[C@@H](O[C@@H]2O[C@H](C)C[C@H](N(C)C)[C@H]2O)[C@@H](CCNCC(C)(C)CO)C[C@@H](C)C(=O)/C=C/C(C)=C/[C@@H]1C (stereo partly specified) |  |  |  |
| 0.19 | 7.97 | 4.887 | 2.157 | 8.88 | 3.22 | 10.1 | CC[C@H]1OC(=O)CC(O)[C@H](C)[C@@H](O[C@@H]2O[C@H](C)C[C@H](N(C)C)[C@H]2O)[C@@H](CCNCCCN(C)C)C[C@@H](C)C(=O)/C=C/C(C)=C/[C@@H]1C (stereo partly specified) |  |  |  |
| -0.16 | 7.03 | 3.067 | 1.307 | 8.53 | 3.27 | 9.16 | CC[C@H]1OC(=O)CC(O)[C@H](C)[C@@H](O[C@@H]2O[C@H](C)C[C@H](N(C)C)[C@H]2O)[C@@H](CCN(C)CCCN(C)C(=O)[C@H](C)N)C[C@@H](C)C(=O)/C=C/C(C)=C/[C@@H]1C (stereo partly specified) |  |  |  |

Further lines, the compound ahead of its results:

| Structure (SMILES) | Log K | pKa (physchem [2]) | pNF [3] | pCF [4] | pKa (physchem [5]) | Log 1/MIC (Pasteurella multocida [6]) | pKa (physchem [7]) | MIC (Pasteurella multocida [1]) | ED50 (Mus musculus) | MIC (Pasteurella multocida [8]) |
| --- | --- | --- | --- | --- | --- | --- | --- | --- | --- | --- |
| CC[C@H]1OC(=O)[C@H](C)[C@@H](O[C@H]2C[C@@](C)(OC)[C@@H](O)[C@H](C)O2)[C@H](C)[C@@H](O[C@@H]2O[C@H](C)C[C@H](N(C)C)[C@H]2O)[C@](C)(O)C[C@@H](C)C(=O)[C@H](C)[C@@H](O)[C@]1(C)O [ERYTHROMYCIN] | 0.35 | 8.88 | 1.494 | 0.014 |  |  |  | 0.78 µg/mL (≈ 1.06 µM) | > 150 mg/kg |  |
| CO[C@@H]1[C@@H](O[C@@H]2O[C@H](C)[C@@H](O[C@H]3C[C@@](C)(O)[C@@H](OC(=O)CC(C)C)[C@@H](C)O3)[C@@H](N(C)C)[C@H]2O)[C@@H](CC=O)C[C@@H](C)C(=O)/C=C/C=C/C[C@@H](C)OC(=O)C[C@H]1OC(C)=O |  |  |  |  |  |  |  | 6.25 µg/mL (≈ 7.57 µM) | > 150 mg/kg |  |
| CC[C@H]1OC(=O)C[C@@H](O)[C@H](C)[C@@H](O[C@@H]2O[C@H](C)C[C@H](N(C)C)[C@H]2O)[C@@H](CC=O)C[C@@H](C)C(=O)/C=C/[C@]2(C)O[C@H]2[C@@H]1C [ROSARAMICIN] | 0.63 | 8.79 | 1.407 | 0.017 |  |  |  | 0.2 µg/mL (≈ 0.344 µM) | 68 mg/kg |  |
| CC[C@H]1OC(=O)C[C@@H](O)[C@H](C)[C@@H](O[C@@H]2O[C@H](C)[C@@H](O)[C@H](N(C)C)[C@H]2O)[C@@H](CCN2C[C@H](C)C[C@H](C)C2)C[C@@H](C)C(=O)/C=C/C(C)=C/[C@@H]1CO[C@@H]1O[C@H](C)[C@@H](O)[C@@H](OC)[C@H]1OC [TILMICOSIN] | 0.26 | 8.18 | 3.007 | 0.847 | 9.56 |  |  | 1.56 µg/mL (≈ 1.79 µM) | 100 mg/kg |  |
| CC[C@H]1OC(=O)C[C@@H](O)[C@H](C)[C@@H](O[C@@H]2O[C@H](C)[C@@H](O)[C@@H](N(C)C)[C@H]2O)[C@@H](CC=O)C[C@@H](C)C(=O)/C=C/C(C)=C/[C@@H]1CO[C@@H]1O[C@H](C)[C@@H](O)[C@@H](OC)[C@H]1OC | 0.17 | 8.36 | 1.005 | 0.045 |  | 2.39 |  |  |  |  |
| CC[C@H]1OC(=O)C[C@@H](O)[C@H](C)[C@@H](O[C@@H]2O[C@H](C)[C@@H](O[C@H]3C[C@@](C)(O)[C@@H](O)[C@H](C)O3)[C@H](N(C)C)[C@H]2O)[C@@H](CC=O)C[C@@H](C)C(=O)/C=C/C(C)=C/[C@@H]1CO[C@@H]1O[C@H](C)[C@@H](O)[C@@H](OC)[C@H]1OC [TYLOSIN] | 0.68 | 7.73 | 0.497 | 0.167 |  |  |  | 25 µg/mL (≈ 27.3 µM) | 86 mg/kg |  |
| CC[C@H]1OC(=O)[C@H](C)[C@@H](O[C@H]2C[C@@](C)(OC)[C@@H](O)[C@H](C)O2)[C@H](C)[C@@H](O[C@@H]2O[C@H](C)C[C@H](N(C)C)[C@H]2O)[C@](C)(OC)C[C@@H](C)C(=O)[C@H](C)[C@@H](O)[C@]1(C)O [CLARITHROMYCIN] | 0.63 |  | 1.601 | 0.011 |  |  |  | 0.39 µg/mL (≈ 0.521 µM) | 100 mg/kg |  |
| CO[C@H]1C[C@H](O[C@H]2[C@H](C)[C@@H](O[C@@H]3O[C@H](C)C[C@H](N(C)C)[C@H]3O)[C@@H](C)CC3(CO3)C(=O)[C@H](C)[C@@H](O)[C@@H](C)[C@@H](C)OC(=O)[C@@H]2C)O[C@@H](C)[C@@H]1O (single isomer, unassigned) [OLEANDOMYCIN] | 0.01 | 8.84 | 1.455 | 0.015 |  |  |  | 6.25 µg/mL (≈ 9.09 µM) | > 150 mg/kg |  |
| CC[C@H]1OC(=O)[C@H](C)[C@@H](O[C@H]2C[C@@](C)(OC)[C@@H](O)[C@H](C)O2)[C@H](C)[C@@H](O[C@@H]2O[C@H](C)C[C@H](N(C)C)[C@H]2O)[C@](C)(O)C[C@@H](C)CN(C)[C@H](C)[C@@H](O)[C@]1(C)O [AZITHROMYCIN] | 0.38 |  | 3.41 | 1.36 |  |  |  |  | 16 mg/kg | 0.05 µg/mL (≈ 0.0668 µM) |
| CO[C@@H]1[C@@H](O[C@@H]2O[C@H](C)[C@@H](O[C@H]3C[C@@](C)(O)[C@@H](OC(=O)CC(C)C)[C@H](C)O3)[C@H](N(C)C)[C@H]2O)[C@@H](CC=O)C[C@@H](C)C(=O)/C=C/[C@@H]2O[C@H]2C[C@@H](C)OC(=O)C[C@H]1OC(C)=O [CARBOMYCIN A] | 1.48 | 7.61 | 0.419 | 0.209 |  |  |  | 1.56 µg/mL (≈ 1.85 µM) | > 150 mg/kg |  |
